Results taken from patent US7071190B2, “Inhibitors to tubulin polymerization” (Rigel Pharmaceuticals, Inc., priority 2002, dated 2006).
Where two headings read alike, the source gives them in different places.

Test system: A549 cells
Assay: Bromodeoxyuridine (BrdU) proliferation assay
Type: cell-based, human
Conditions: for IC50: BrdU ELISA 48 hours after addition of compound, tested 0.03-10 uM, cell line not given (A549 method; SW-480 and MDA-MB-231 also used), read-out: Assay Result (IC50μM); for Activity ranking: most active compounds of the invention / Activity ranking: particularly active examples of the compounds of the invention: antiproliferative activity
Experimental: In order to determine the antiproliferative activity of microtubule inhibitors, A549 cells were plated in 96 well plates at 2000 cells/well 24 hours prior to the addition of a compound of the invention in 80 ul growth media (F12K, 10% FBS, Pen/Strep). Prior to addition to cells, compounds were solubilized in 100% DMSO to 5 mM and serially diluted in 6 semi-log steps in 100% DMSO. The diluted compounds were added to cells by two 15.8-fold dilution steps, the first being a dilution into a 23% ethanol/H2O mixture and the second being a dilution into growth media. Finally, these dilutions were followed by a 1:1 dilution onto cells. The resulting final solvent concentration was 0.2% DMSO/0.75% ethanol. Compounds were tested at final concentrations of 10, 3, 1, 0.3, 0.1 and 0.03 uM. Forty-eight hours after the addition of compound, the effects on cellular proliferation were measured using a cell proliferation BrdU ELISA (Roche Molecular Biochemicals, Cat.#1 669 915).

| Compound | IC50 (Homo sapiens, A549, 48 h) | Activity ranking: most active compounds of the invention | Activity ranking: particularly active examples of the compounds of the invention | IC50 |
| --- | --- | --- | --- | --- |
| Cc1ccc(-c2cc3ncnc(NNC(=S)Nc4ccccc4)c3s2)cc1C [Compound 51] | 0.622 µM | most active | particularly active | – |
| S=C(NNc1ncnc2cc(-c3ccccc3)sc12)N[C@@H]1CCC[C@H]1OCc1ccccc1 [Compound 22] | 5.57 µM | – | particularly active | – |
| COCCNC(=S)NNc1ncnc2cc(-c3ccccc3)sc12 [Compound 73] | 0.202 µM | most active | particularly active | – |
| S=C(NCC1CCCO1)NNc1ncnc2cc(-c3ccccc3)sc12 (stereo not drawn) [Compound 63] | 0.211 µM | most active | particularly active | – |
| Cc1cccc(-c2cc3ncnc(NNC(=S)NCC(O)CO)c3s2)c1 (stereo not drawn) [Compound 49] | – | – | particularly active | – |
| COc1ccc(NC(=S)NNc2ncnc3cc(-c4ccccc4)sc23)c(OC)c1 [Compound 14] | – | – | – | 26.7 µM |
| S=C(NC[C@@H]1CCCO1)NNc1ncnc2cc(-c3ccccc3)sc12 [Compound 65] | 0.134 µM | most active | particularly active | – |
| COc1ccccc1NC(=S)NNc1ncnc2cc(-c3ccccc3)sc12 [Compound 6] | 0.329 µM | most active | particularly active | – |
| COCCCNC(=S)NNc1ncnc2cc(-c3cc(C)cc(C)c3)sc12 [Compound 101] | 0.029 µM | most active | particularly active | – |
| Cc1cccc(-c2cc3ncnc(NNC(=S)NC4CCCC4)c3s2)c1 [Compound 46] | 0.256 µM | most active | particularly active | – |
| S=C(NNc1ncnc2cc(-c3ccc4c(c3)OCO4)sc12)Nc1ccccc1 [Compound 52] | – | – | particularly active | – |
| COc1ccc(NC(=S)NNc2ncnc3cc(-c4ccccc4)sc23)cc1OC [Compound 15] | 6.7 µM | – | particularly active | – |
| CCNC(=S)NNc1ncnc2cc(-c3cccc(C)c3)sc12 [Compound 84] | 0.113 µM | most active | particularly active | – |
| Cc1cc(C)cc(-c2cc3ncnc(NNC(=S)Nc4ccccc4)c3s2)c1 [Compound 50] | 0.927 µM | most active | particularly active | – |
| FC(F)(F)c1ccccc1NC(=S)NNc1ncnc2cc(-c3ccccc3)sc12 [Compound 4] | 0.904 µM | most active | particularly active | – |
| CCCNC(=S)NNc1ncnc2cc(-c3ccccc3)sc12 [Compound 71] | 0.02 µM | most active | particularly active | – |
| CCCNC(=S)NNc1ncnc2cc(-c3cccc(C)c3)sc12 [Compound 85] | 0.044 µM | most active | particularly active | – |
| COCCNC(=S)NNc1ncnc2cc(-c3ccc(C)cc3)sc12 [Compound 87] | 0.166 µM | most active | particularly active | – |
| Cc1cccc(-c2cc3ncnc(NNC(=S)NCc4ccco4)c3s2)c1 [Compound 83] | 0.127 µM | most active | particularly active | – |
| CCOC(=O)c1ccccc1NC(=S)NNc1ncnc2cc(-c3ccccc3)sc12 [Compound 11] | – | – | particularly active | 2.2 µM |
| Cc1ccc(-c2cc3ncnc(NNC(=S)NC4CC4)c3s2)cc1 [Compound 38] | 0.121 µM | most active | particularly active | – |
| COC(=O)CCNC(=S)NNc1ncnc2cc(-c3ccccc3)sc12 [Compound 76] | 0.187 µM | most active | particularly active | – |

| Compound | IC50 (Homo sapiens, A549, 48 h) | Activity ranking: most active compounds of the invention | Activity ranking: particularly active examples of the compounds of the invention | IC50 |
| --- | --- | --- | --- | --- |
| S=C(NNc1ncnc2cc(-c3cccc(Cl)c3)sc12)NC1CC1 [Compound 42] | 0.146 µM | most active | particularly active | – |
| COCCCNC(=S)NNc1ncnc2cc(-c3ccccc3)sc12 [Compound 74] | 0.054 µM | most active | particularly active | – |
| S=C(NNc1ncnc2cc(-c3ccc(Cl)cc3)sc12)Nc1ccccc1 [Compound 34] | 1.5 µM | – | particularly active | – |
| Cc1cccc(-c2cc3ncnc(NNC(=S)NCC4COC(C)(C)O4)c3s2)c1 (stereo not drawn) [Compound 82] | – | – | particularly active | – |
| S=C(NCc1ccccc1)NNc1ncnc2cc(-c3ccccc3)sc12 [Compound 57] | 0.23 µM | most active | particularly active | – |
| COCCNC(=S)NNc1ncnc2cc(-c3ccc(OC)cc3)sc12 [Compound 92] | 1.19 µM | – | particularly active | – |
| Cc1ccc(-c2cc3ncnc(NNC(N)=S)c3s2)cc1 [Compound 30] | 1.97 µM | – | particularly active | – |
| Cc1cccc(-c2cc3ncnc(NNC(=S)N[C@@H]4CCC[C@H]4OCc4ccccc4)c3s2)c1 [Compound 47] | 7.16 µM | – | particularly active | – |
| S=C(NNc1ncnc2cc(-c3ccccc3)sc12)Nc1cccnc1 [Compound 25] | 6.44 µM | – | particularly active | – |
| S=C(NNc1ncnc2cc(-c3ccccc3)sc12)Nc1ccccc1 [Compound 2] | – | most active | particularly active | 0.39 µM |
| COCCNC(=S)NNc1ncnc2cc(-c3cccc(C(F)(F)F)c3)sc12 [Compound 91] | 2.2 µM | – | particularly active | – |
| S=C(NCC(c1ccccc1)c1ccccc1)NNc1ncnc2cc(-c3ccccc3)sc12 [Compound 105] | 8.15 µM | – | particularly active | – |
| COc1cc([N+](=O)[O-])ccc1NC(=S)NNc1ncnc2cc(-c3ccccc3)sc12 [Compound 17] | – | – | particularly active | 5.11 µM |
| CC(C)NC(=S)NNc1ncnc2cc(-c3ccccc3)sc12 [Compound 72] | 0.024 µM | most active | particularly active | – |
| S=C(NCCN1CCOCC1)NNc1ncnc2cc(-c3ccccc3)sc12 [Compound 68] | 6.03 µM | – | particularly active | – |
| Cc1cccc(-c2cc3ncnc(NNC(=S)NCC4CCCO4)c3s2)c1 (stereo not drawn) [Compound 79] | 0.719 µM | most active | particularly active | – |
| COc1ccc(OC)c(NC(=S)NNc2ncnc3cc(-c4ccccc4)sc23)c1 [Compound 16] | 0.998 µM | most active | particularly active | – |
| COc1cccc(-c2cc3ncnc(NNC(=S)NCC4CCCO4)c3s2)c1 (stereo not drawn) [Compound 81] | – | – | particularly active | – |
| COc1cccc(NC(=S)NNc2ncnc3cc(-c4ccccc4)sc23)c1 [Compound 5] | 0.49 µM | most active | particularly active | – |
| OCCCCNC(=S)NNc1ncnc2cc(-c3ccccc3)sc12 [Compound 28] | 6.31 µM | – | particularly active | – |
| S=C(NNc1ncnc2cc(-c3cccc(Cl)c3)sc12)Nc1ccccc1 [Compound 35] | 2.79 µM | – | particularly active | – |
| COCCCNC(=S)NNc1ncnc2cc(-c3cccc(C)c3)sc12 [Compound 89] | 0.028 µM | most active | particularly active | – |
